# Structures can show the parent of a compound that is named as a salt. Where two headings read alike, the source gives them in different places.
# How the values were obtained:
# [1] = test system: Dorsal root ganglion cells; assay: Vinblastine-induced toxicity in dorsal root ganglion cells, live/dead staining; assay type: cell-based; conditions: Na,K-tartrate 500 μM; NGF 50 ng/ml; vinblastine 500 nM; 24 hours
# Experimental: Dorsal root ganglion cells were treated with Nerve Growth Factor (NGF) (50 ng/ml), vinblastine (500 nM) and Na,K-tartrate (500 μM) for 24 hours. Following the treatment, the dorsal root ganglion cells were stained with ethidium bromide and fluorescein diacetate to stain dead and live cells, respectively.
# FIG. 5 illustrates the results of the study of Example 16. Percentage cell viability is determined from the ratio of live cells to total cell number. Each bar in […] represents the mean of 3 wells ± the standard deviation.
# HT4 neurotumor cells = assay: β-amyloid peptide toxicity in HT4 neurotumor cells, LDH release; assay type: cell-based, rat; conditions: 100 μM inhibitor; 50 μM β-amyloid peptide 25-35 and 250 μM quisqualate; 24 hours after treatment
# Experimental: HT4 neurotumor cells were treated with 50 μM β-amyloid peptide 25-35 and 250 μM quisqualate. The cells were also treated with 100 μM of the following alkaline phosphatase inhibitors: 1,10 phenanthroline, phenylalanine, IBMX, bromotetramisole, purine, and theophylline. The death of the neurons was determined by measuring LDH activity in the media 24 hours after treatment. The release of LDH from the cells into the surrounding media indicates cell death.
# FIG. 1 illustrates the results of the study of Example 1. […] Cells subjected to no treatment had only a low level of LDH activity.
# [2] = test system: Porcine kidney alkaline phosphatase; assay: Alkaline phosphatase assay with pNPP substrate, porcine kidney enzyme; assay type: biochemical; conditions: pNPP 5 mM, pH 5.5 lysis buffer
# Experimental: (§1) Porcine kidney (0.01 U) and calf intestinal (0.002 U) alkaline phosphatases were assayed in the presence of levamisole (200 μM) or vanadate salt (5-500 μM) using pNPP (5 mM) as substrate. The assay was carried out in pH 5.5 lysis buffer. Each bar in FIG. 4 represents the mean of quadruplicates ± the standard deviation. The results of the experiment of Example 4 are illustrated in FIG. 4. […] The effect of treatment on humans with AD using arylimidothiazole derivatives having alkaline phosphatase inhibitory activity is described below in Examples 5-9.
# [3] = test system: calf intestinal alkaline phosphatase; assay: Alkaline phosphatase assay with pNPP substrate, calf intestinal enzyme; assay type: biochemical; conditions: pNPP 5 mM, pH 5.5 lysis buffer
# Experimental: as §1
# [4] = Experimental: Human subjects diagnosed as suffering from AD are administered 50 mg of an arylimidothiazole derivative, such as levamisole, orally every eight hours for three days. The treatment is repeated every 14 days for a period of 6 months. […] A human patient diagnosed as suffering from Alzheimer's Disease is administered about 50 mg levamisole orally every eight hours for three days. The treatment is repeated every 14 days for a period of 6 months. […] Human subjects diagnosed as suffering from AD are administered 0.05 mg/kg of an arylimidothiazole derivative, such as levamisole, orally every day for a period of six months. […] A human patient diagnosed as suffering from Alzheimer's Disease is identified as having deteriorating symptoms of the disease. The patient is administered about 10 mg levamisole orally once per day for a period of six months.
# [5] = test system: rat embryonic hippocampal neurons; conditions: 50 μM β-amyloid 25-35
# Experimental: To further determine the effect of alkaline phosphatase inhibitors on βamyloid peptide toxicity, rat embryonic hippocampal neurons in culture were exposed to 50 μM β-amyloid 25-35 in the presence of levamisole concentrations of 250 μM and 500 μM.
# Hippocampal neurons = assay: Okadaic acid with β-amyloid on hippocampal neurons, LDH efflux; assay type: cell-based; conditions: 50 nM okadaic acid with 50 μM β-amyloid (β25-35), 24 hours, DME medium, 37° C.
# Experimental: Hippocampal neurons were treated with 50 μM β-amyloid (β25-35)and 50 nM okadaic acid for 24 hours in Dulbeccois Modified Eagle's (DME) medium at 37° C. Following the 24-hour treatment period, an aliquot of media was removed for determination of LDH efflux from the neurons, which is an indicator of cell death. Each bar in FIG. 3, except the bar representing okadaic acid alone, represents the mean of 4 wells ± the standard deviation. The bar representing okadaic acid alone represents the mean of 2 wells ± the standard deviation.
smiles,measurement,setting,value
"O=C(O)C(O)C(O)C(=O)O (single isomer, unassigned) [Na,K-tartrate]",percentage cell viability in the presence of vinblastine,[1],significantly increased
CC(C)Cn1c(=O)n(C)c(=O)c2[nH]cnc21 [IBMX],LDH activity in the media (cell death),HT4 neurotumor cells,most effective compound tested
"c1ccc([C@H]2CN3CCSC3=N2)cc1 [levamisole, (-)-(S)-2,3,5,6-tetrahydro-6-phenylimidoazide [2,1-b]thiazole monohydrochloride]",Inhibition of porcine kidney alkaline phosphatase activity,[2]; levamisole 200 μM,unexpectedly high
same,Inhibition of calf intestinal alkaline phosphatase,[3]; levamisole 200 μM,little effect
same,symptoms of AD,"[4]; 50 mg orally every eight hours for three days, repeated every 14 days for 6 months",lessened
same,symptoms of AD,[4]; about 10 mg orally once per day for six months,decrease
same,"death of the neurons, as indicated by the release of LDH",[5]; levamisole 250 μM,reduced
same,LDH activity,[5]; levamisole 500 μM,reduced
C=C1[C@@H](O)[C@@H]2O[C@]3(CC[C@H](/C=C/[C@@H](C)[C@@H]4CC(C)=C[C@@]5(O[C@H](C[C@@](C)(O)C(=O)O)CC[C@H]5O)O4)O3)CC[C@H]2O[C@@H]1[C@@H](O)C[C@H](C)[C@H]1O[C@@]2(CCCCO2)CC[C@H]1C [okadaic acid],hippocampal neuronal injury (LDH efflux),Hippocampal neurons,causes hippocampal neuronal injury
[O]=[V]([O-])([O-])[O-] [vanadate],Inhibition of porcine kidney alkaline phosphatase activity,[2]; vanadate salt 5-500 μM,appear to inhibit
same,Inhibition of calf intestinal alkaline phosphatase,[3]; vanadate 100 μM,significantly inhibited

# From patent US5567724A, “Alkaline and acid phosphatase inhibitors in treatment of neurological disorders” (Cortex Pharmaceuticals, Inc., priority 1994, dated 1996)
